Laboratory results from patent publication US9585871B2, “Method for treating and curing leishmaniosis using fexinidazole” (Merial Limited, priority 2013, dated 2017).
Values joined by “and” are separate entries in the source; they are usually repeats but may differ in a detail not shown here. Equal entries are not always repeated. “Also recorded” adds a separate entry of the source.

Columns and labels:
[1] = system: L. infantum; test: Clinical study in dogs infected with L. infantum: qPCR on spleen aspirates; assay type: in vivo; settings: spleen aspirate, Glucantime 100 mg/kg dNMA SC or Fexinidazole 60 mg/kg PO once daily Days 0-27
Protocol: (§1) In a clinical study, dogs infected with L. infantum were treated with meglumine antimoniate (GLUCANTIME®, Merial) as a positive control, or FEX (Table 5). Eight blocks of two animals were formed based antibody titers and biological scores. Six dogs in each group were naturally infected by housing them in an endemic area for two years and two dogs in each group were artificially infected by intravenous administration of a known quantity of parasites recovered from the spleen of an infected dog.
(§2) The first group (FEX) was compared to the second group, which was treated with 27 mg/kg GLUCANTIME (meglumine antimoniate, or 100 mg/kg of dNMA) “GLU”), over 28 days.
(§3) Variables. The Clinical Score is an additive score of various clinical signs (body condition, lymphadenopathy, splenomegaly, appetite, behavior, mucous membrane color, dermatopathology, ocular signs, digestive signs, arthropathy) evaluated before treatment and on Days 7, 14, 21, 28, 57, 184, 219, 254, 282, 310, 345, 400 and 436. The Overall Biological Score is an additive score based on the severity of changes in hematology/chemistry values (creatinine, urine protein/creatinine, Hct, globulin, ALAT), evaluated pretreatment and on Days 28, 57, and 181. The L. infantum immunofluorescent antibody titers (IFAT) were determined from samples collected before treatment and on Days 28, 57, and 181. Finally, quantitative PCR (qPCR) for L. infantum was conducted on spleen aspirates collected before treatment and on Days 28, 57, 142, 184, and 373.

[2] = Excretion and metabolites of labeled FEX; assay type: in vivo
Source text: (§4) Toxicology summary. In mice and rats, the maximum fexinidazole (FEX) dose after oral administration is 10 g/kg of body weight. […] Finally, as regards PK, labeled FEX and its metabolites were excreted within 3 days in the feces (52-58%) and urine (36-40%).

[3] = system: L. donovani; settings: mice; Wyllie, Sci Transl. Med 4, 119, 2012; cited from earlier work
[4] = system: bone marrow micronucleus; test: Mammalian cell mutagenicity, bone marrow micronucleus study; assay type: in vivo; settings: all test concentrations (500, 1000 and 2000 mg/kg)
Source text: as §4

[5] = system: chromosome damage; test: Chromosome damage in vitro or in vivo
Source text: as §4

[6] = system: L. infantum; test: Clinical study in dogs infected with L. infantum: Clinical Score; assay type: in vivo; parameters: key: additive score of clinical signs (body condition, lymphadenopathy, etc.); settings: Glucantime 100 mg/kg dNMA SC or Fexinidazole 60 mg/kg PO once daily Days 0-27
Protocol: as §1, §2, §3

[7] = Reproductive toxicity study, rats; assay type: in vivo; settings: oral 200 mg/kg for 10 days
Source text: as §4

[8] = Reproductive toxicity study, rabbits; assay type: in vivo; settings: oral 40 mg/kg for 13 days
Source text: as §4

[9] = Toxicology summary: maximum dose after oral administration, mice; assay type: in vivo
Source text: as §4

[10] = Toxicology summary: maximum dose after oral administration, rats; assay type: in vivo
Source text: as §4

[11] = Multiple dosing study in dogs, 28 consecutive days oral: tolerability; assay type: in vivo, dog; settings: for Effects observed: dog, in vivo
Source text: In a particular embodiment, the sufficient fexinidazole plasma levels are achieved by administering oral veterinary compositions comprising an effective amount of fexinidazole over a period of time of at least about twenty days. The fexinidazole may be administered according to any effective regimen, including, but not solely, once weekly, twice weekly, once daily, or twice daily. All that is required is that dosing regimen maintains a sufficient fexinidazole plasma level, over a sufficient period of time, to substantially or completely eliminate or cure the Leishmania infections.
Moreover, inventors expect that a wide variety of dosing regimens are now available to the skilled person to achieve the necessary and sufficient fexinidazole plasma levels. For example, and as further outlined in the Examples below, any dosing regimen that produces substantially similar fexinidazole plasma levels, as compared to those levels produced by giving the dogs about 60 mg/kg/day for about twenty-eight days, is expected to substantially or completely eliminate the Leishmania parasites. Table 1 presents the systemic fexinidazole exposure following dosing of dogs with 50, 200, and 800 mg/kg/day.

[12] = system: L. infantum; test: Clinical study in dogs infected with L. infantum: overall outcome (cure, relapse, removal of animals); assay type: in vivo; settings: canines, L. infantum
Protocol: as §1
The first group (FEX) was compared to the second group, which was treated with 27 mg/kg GLUCANTIME (meglumine antimoniate, or 100 mg/kg of dNMA) “GLU”), over 28 days. […]

[13] = system: Leishmania donovani amastigotes grown in macrophages; settings: Wyllie S et al., 2012; cited from earlier work
[14] = system: L. infantum; test: Clinical study in dogs infected with L. infantum: IFAT antibody titers; assay type: in vivo; settings: Glucantime 100 mg/kg dNMA SC or Fexinidazole 60 mg/kg PO once daily Days 0-27
Protocol: as §1, §2, §3

[15] = system: L. infantum; test: Clinical study in dogs infected with L. infantum: Overall Biological Score; assay type: in vivo; parameters: key: additive score of severity of hematology/chemistry changes; settings: Glucantime 100 mg/kg dNMA SC or Fexinidazole 60 mg/kg PO once daily Days 0-27
Protocol: as §1, §2, §3

[16] = labeled FEX and its metabolites, within 3 days

## CSc1ccc(OCc2ncc([N+](=O)[O-])n2C)cc1 [Fexinidazole, fexinidazole]
[1]; Day 28, individual dogs
  qPCR for L. infantum: BLOQ (BLOQ = Below Level of Quantification = < log 3.64 copies/mL spleen aspirate)
[1]; Day 57, individual dogs
  qPCR for L. infantum: BLOQ (BLOQ = Below Level of Quantification = < log 3.64 copies/mL spleen aspirate)
[1]; Day 142, individual dogs
  qPCR for L. infantum: BLOQ (BLOQ = Below Level of Quantification = < log 3.64 copies/mL spleen aspirate)
[1]; Day 184, individual dogs
  qPCR for L. infantum: BLOQ (BLOQ = Below Level of Quantification = < log 3.64 copies/mL spleen aspirate)
[1]; Day 373, individual dogs
  qPCR for L. infantum: BLOQ (BLOQ = Below Level of Quantification = < log 3.64 copies/mL spleen aspirate) (7×) and 3.82 log copies/mL
[1]; Day −7 (before treatment), individual dogs
  qPCR for L. infantum: 7.19 log copies/mL and 7.11 log copies/mL and 5.21 log copies/mL and 5.57 log copies/mL and 6.58 log copies/mL and 5.81 log copies/mL and 6.01 log copies/mL and BLOQ (BLOQ = Below Level of Quantification = < log 3.64 copies/mL spleen aspirate)
[2]; feces and urine
  time to excretion of labeled FEX and its metabolites: ≤ 3 days
[2]; in vivo
  main metabolites: the sulfoxide, the sulfone, and the corresponding phenolic fragments
[2]; [16]
  excretion in the feces: 52-58%
  excretion in the urine: 36-40%
[3]
  suppression of infection due to L. donovani: able to suppress infection
[4]
  mammalian cell mutagenicity, bone marrow micronucleus study: negative
[5]
  chromosome damage: does not induce chromosome damage
[6]; Day 7
  Clinical Score, group average: 2.8
[6]; Day 14, individual dogs
  Clinical Score: 2 (2×) and 0 (2×) and 3 (3×)
[6]; Day 14
  Clinical Score, group average: 1.6
[6]; Day 21, individual dogs
  Clinical Score: 0 (5×) and 2 (2×)
[6]; Day 21
  Clinical Score, group average: 0.5
[6]; Day 28, individual dogs
  Clinical Score: 0 (4×) and 1 (2×) and 2
[6]; Day 28, Group 1 includes D21 data of Block 3 dog carried forward
  Clinical Score, group average: 0.5
[6]; Day 57, individual dogs
  Clinical Score: 2 (3×) and 0 (4×)
[6]; Day 57, Group 1 includes D21 data of Block 3 dog carried forward
  Clinical Score, group average: 0.8
[6]; Day 184, individual dogs
  Clinical Score: 0
[6]; Day 184
  Clinical Score, group average: 0.1
[6]; Day 219, individual dogs
  Clinical Score: 0 (6×) and 1
[6]; Day 219
  Clinical Score, group average: 0.1
[6]; Day 254, individual dogs
  Clinical Score: 0 (7×) and 4
[6]; Day 254
  Clinical Score, group average: 0.5
[6]; Day 282, individual dogs
  Clinical Score: 0 (7×) and 2
[6]; Day 282
  Clinical Score, group average: 0.3
[6]; Day 310, individual dogs
  Clinical Score: 0 (6×) and 2
[6]; Day 310
  Clinical Score, group average: 0.3
[6]; Day 345, individual dogs
  Clinical Score: 0 (6×) and 2
[6]; Day 345
  Clinical Score, group average: 0.3
[6]; Day 400, individual dogs
  Clinical Score: 0 (5×) and 1 and 2
[6]; Day 400
  Clinical Score, group average: 0.4
[6]; Day 436
  Clinical Score, group average: 0.4
[6]; Day −7 (before treatment)
  Clinical Score, group average: 2.4
[7]
  embryotoxic effects: no embryotoxic effects
[8]
  embryotoxic effects: no embryotoxic effects
[9]
  maximum dose after oral administration: 10 g/kg of body weight
[10]
  maximum dose after oral administration: 10 g/kg of body weight
[11]; 200 mg/kg/day
  Effects observed: no effects were observed
[11]; 800 mg/kg/day
  Effects observed: only minor effects were observed
[11]; dogs, oral 50, 200 and 800 mg/kg/day for 28 consecutive days
  Tolerability: well tolerated
[12]; 180 days after treatment initiation
  relapse: No relapse was observed
[12]; oral 60 mg/kg/day for 28 days, qPCR-confirmed, 60 mg/kg/day
  cure of Leishmania infection: can substantially or completely eliminate or cure L. infantum infection in canines; also recorded: sufficient to cure canines of leishmania parasites; also recorded: complete curing efficacy
[13]
  activity against Leishmania donovani amastigotes grown in macrophages: inactive
[14]; Day 28, individual dogs
  L. infantum IFAT Antibody Titers: 1/80
[14]; Day 57, individual dogs
  L. infantum IFAT Antibody Titers: 1/640 (2×) and 1/320 and 1/80
[14]; Day 181, individual dogs
  L. infantum IFAT Antibody Titers: 1/640 (2×) and 1/320 and 1/80
[15]; Day 28, individual dogs
  Overall Biological Score: 3 (2×) and 2 (2×) and 1 (2×) and 0 (2×)
[15]; Day 28
  Overall Biological Score, group average: 1.5
[15]; Day 57, individual dogs
  Overall Biological Score: 2 (3×) and 0 (3×) and 3 (2×)
[15]; Day 57, Group 1 includes D28 data of Block 3 dog carried forward
  Overall Biological Score, group average: 1.5
[15]; Day 181, individual dogs
  Overall Biological Score: 0 (5×) and 1 (2×) and 3
[15]; Day 181, Group 1 includes D28 data of Block 3 dog carried forward
  Overall Biological Score, group average: 0.6
[15]; Day −14 (pretreatment), individual dogs
  Overall Biological Score: 4 and 7 and 5 (2×) and 2 and 3 and 1 and 0
[15]; Day −14 (pretreatment)
  Overall Biological Score, group average: 3.4
